Results: patent US20240009224A1, “ACYCLIC THREONINOL NUCLEIC ACID” (The University of Tokyo, priority 2021, published 2024)
{Fluorescein} = fluorescein label

System: HeLa cells
Assay: Flow cytometry of HeLa cells after introduction of fluorescein-labeled nucleic acid (cell membrane permeability)
Assay type: cell-based
Conditions: fluorescein-labeled control DNA = 1
Protocol: HeLa cells were cultured in Dulbecco's modified Eagle's medium (DMEM, manufactured by Thermo Fisher Scientific, Inc.) supplemented with 10% FBS and 0.5% penicillin/streptomycin in a humidified atmosphere (5 vol % CO2) at 37° C. Cells for image analysis were cultured in a 35 mm glass bottom dish (IWAKI, manufactured by AGC Techno Glass Co., Ltd.).
[…] On the day after seeding, the medium in each well was changed to DMEM medium (1 mL) containing a fluorescein-conjugated nucleic acid (2.5 μM) and incubated for 4 or 24 hours. Then, after washing the cell layer in the well twice with PBS, the cells were detached by treatment with 0.05% (w/v) trypsin (200 μL) at 37° C. for 5 minutes. The recovered cells were suspended in DMEM (600 μL). The cell suspension was separated by centrifugation process (400×g, 3 minutes), and PBS/1% BSA (500 μL) was added thereto. The ratio of fluorescent cells in this cell suspension and the mean fluorescence intensity were analyzed with a flow cytometer (“guava easyCyte8”, manufactured by Luminex Corporation).
After introducing a nucleic acid (fluorescein-labeled aTNA-N5[PFC8]) in which fluorescein was bound to the 3′-end of the synthesized aTNA-N5[PFC8] into HeLa cells, flow cytometry was performed, and the number of cells into which the fluorescein-labeled nucleic acid was introduced and the amount of fluorescein-labeled nucleic acid introduced into each cell were quantified based on the fluorescence intensity of fluorescein. As a control, a nucleic acid in which fluorescein was bound to the 3′-end of the control DNA (fluorescein-labeled control DNA) was also introduced into HeLa cells in the same manner and then analyzed by flow cytometry.
The fluorescein-labeled aTNA-N5[PFC8] produced in Example 1 was hybridized with a single-stranded DNA (control rDNA) composed of a base sequence (SEQ ID NO: 2) complementary to that of the control DNA to produce a fluorescein-labeled double-stranded DNA (fluorescein-labeled aTNA-N5[PFC8]/rDNA) having a repeating structure of the structure (A1) at the 5′-end and bound with fluorescein at the 3′-end. […] These fluorescein-labeled double-stranded DNAs were introduced into HeLa cells and then analyzed by flow cytometry in the same manner as in Example 1.
After respectively introducing nucleic acids (fluorescein-labeled aTNA-C2[PFC8] and fluorescein-labeled aTNA-C5[PFC8]) in which fluorescein was bound to the 3′-ends of the synthesized aTNA-C2[PFC8] and aTNA-C5[PFC8] into HeLa cells, flow cytometry was performed, and the number of cells into which the fluorescein-labeled nucleic acid was introduced and the amount of fluorescein-labeled nucleic acid introduced into each cell were quantified based on the fluorescence intensity of fluorescein. […]

Measured: Relative fluorescence intensity of cells into which fluorescein-labeled nucleic acid was introduced

Control DNA: control DNA (Seq. No. 1), natural single stranded DNA; fluorescein bound to the 3′-end (DNA TTTTTCAGTTGACCATATA; DNA, 3' {Fluorescein}, backbone and methylation of C not given here)
1.0: Example 1, single-stranded, 2.5 μM, 4 or 24 hours | Example 3, single-stranded | Example 4, single-stranded, 96-well plate, 10^4 cells per well, 2.5 μM, 4 hours | Example 6, single-stranded, 96-well plate, 10^4 cells per well, 2.0 μM, 4 hours
